In brackets after ≈: the same amount, converted by molar mass. Values belong to the molecule of their own block, whether it stands above or below them.
How the values were obtained:
[1] = Oral bioavailability in BALB/c mouse at 10 mg/kg; type: ADME, organism-based; details: in vivo
[2] = AUC (0 to infinity) in BALB/c mouse at 10 mg/kg, po; type: ADME, organism-based; design: time infinity, dose 10 mg/kg, route oral; details: plasma
Insulin receptor = Insulin receptor (Homo sapiens, UniProt P06213); assay: Inhibition of insulin receptor kinase
Sequence of Insulin receptor (P06213 28-758 limits assumed): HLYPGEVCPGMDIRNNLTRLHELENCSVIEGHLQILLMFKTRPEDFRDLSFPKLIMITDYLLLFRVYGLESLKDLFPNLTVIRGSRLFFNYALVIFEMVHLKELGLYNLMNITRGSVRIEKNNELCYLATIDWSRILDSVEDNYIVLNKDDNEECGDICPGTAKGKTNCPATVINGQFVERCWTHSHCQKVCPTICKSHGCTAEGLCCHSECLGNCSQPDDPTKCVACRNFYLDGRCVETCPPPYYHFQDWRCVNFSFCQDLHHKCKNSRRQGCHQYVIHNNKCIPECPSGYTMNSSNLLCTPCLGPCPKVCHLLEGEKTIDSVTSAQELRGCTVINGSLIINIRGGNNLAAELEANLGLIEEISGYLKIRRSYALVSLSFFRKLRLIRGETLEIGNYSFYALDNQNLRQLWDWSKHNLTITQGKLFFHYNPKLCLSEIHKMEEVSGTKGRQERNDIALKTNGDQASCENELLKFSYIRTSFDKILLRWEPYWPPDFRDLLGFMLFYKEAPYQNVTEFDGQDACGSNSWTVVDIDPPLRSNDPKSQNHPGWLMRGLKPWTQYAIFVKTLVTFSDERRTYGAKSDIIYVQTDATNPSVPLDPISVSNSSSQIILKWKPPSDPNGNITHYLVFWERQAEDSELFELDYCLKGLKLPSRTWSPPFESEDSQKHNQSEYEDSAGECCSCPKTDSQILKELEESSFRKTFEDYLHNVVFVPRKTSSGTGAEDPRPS
Sequence of Insulin receptor (P06213 763-1382 limits assumed): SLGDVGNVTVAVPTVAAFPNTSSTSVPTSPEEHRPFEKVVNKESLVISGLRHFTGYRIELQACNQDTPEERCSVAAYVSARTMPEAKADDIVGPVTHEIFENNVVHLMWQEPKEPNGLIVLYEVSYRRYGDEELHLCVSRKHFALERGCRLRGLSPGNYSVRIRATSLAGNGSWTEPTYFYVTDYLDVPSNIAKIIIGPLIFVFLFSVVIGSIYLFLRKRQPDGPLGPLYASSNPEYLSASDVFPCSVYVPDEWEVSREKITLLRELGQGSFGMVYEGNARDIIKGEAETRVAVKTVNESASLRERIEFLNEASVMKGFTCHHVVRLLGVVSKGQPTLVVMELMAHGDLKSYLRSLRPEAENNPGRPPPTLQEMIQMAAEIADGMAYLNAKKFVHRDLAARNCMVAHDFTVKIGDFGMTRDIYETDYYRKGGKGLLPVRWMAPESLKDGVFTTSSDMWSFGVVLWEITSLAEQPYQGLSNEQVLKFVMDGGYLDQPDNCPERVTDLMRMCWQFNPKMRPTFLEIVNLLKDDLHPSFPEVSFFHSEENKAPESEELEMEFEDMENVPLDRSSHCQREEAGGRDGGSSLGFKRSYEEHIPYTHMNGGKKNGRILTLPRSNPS

Cytochrome P450 2C9 = Cytochrome P450 2C9 (Homo sapiens, UniProt P11712); assay: Inhibition of CYP2C9; type: ADME
Sequence of Cytochrome P450 2C9 (P11712 whole entry): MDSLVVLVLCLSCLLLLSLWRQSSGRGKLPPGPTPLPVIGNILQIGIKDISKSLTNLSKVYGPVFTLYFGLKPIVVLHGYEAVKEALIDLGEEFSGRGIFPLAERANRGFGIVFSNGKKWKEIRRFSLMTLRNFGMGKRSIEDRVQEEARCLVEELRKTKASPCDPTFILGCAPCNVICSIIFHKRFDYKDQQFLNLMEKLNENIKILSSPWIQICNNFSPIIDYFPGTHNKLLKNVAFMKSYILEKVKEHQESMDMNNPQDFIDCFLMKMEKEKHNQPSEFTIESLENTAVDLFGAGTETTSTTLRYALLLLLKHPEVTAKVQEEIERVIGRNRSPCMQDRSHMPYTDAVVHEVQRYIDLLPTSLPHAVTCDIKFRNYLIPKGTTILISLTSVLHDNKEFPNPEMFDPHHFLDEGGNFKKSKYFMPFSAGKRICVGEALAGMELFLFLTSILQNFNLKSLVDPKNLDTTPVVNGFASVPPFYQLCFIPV

MEF = assay: Antiproliferative activity against mouse MEF cells transfected with human IGF1R assessed as inhibition of IGF1-induced proliferation after 72 hrs by [14C]thymidine incorporation assay; type: functional, cell-based
[3] = Solubility of compound; type: physicochemical
Cytochrome P450 1A2 = molecular target: T1, Cytochrome P450 1A2 (Homo sapiens, UniProt P05177); assay: Inhibition of CYP1A2; type: ADME
T1 sequence (P05177 whole entry): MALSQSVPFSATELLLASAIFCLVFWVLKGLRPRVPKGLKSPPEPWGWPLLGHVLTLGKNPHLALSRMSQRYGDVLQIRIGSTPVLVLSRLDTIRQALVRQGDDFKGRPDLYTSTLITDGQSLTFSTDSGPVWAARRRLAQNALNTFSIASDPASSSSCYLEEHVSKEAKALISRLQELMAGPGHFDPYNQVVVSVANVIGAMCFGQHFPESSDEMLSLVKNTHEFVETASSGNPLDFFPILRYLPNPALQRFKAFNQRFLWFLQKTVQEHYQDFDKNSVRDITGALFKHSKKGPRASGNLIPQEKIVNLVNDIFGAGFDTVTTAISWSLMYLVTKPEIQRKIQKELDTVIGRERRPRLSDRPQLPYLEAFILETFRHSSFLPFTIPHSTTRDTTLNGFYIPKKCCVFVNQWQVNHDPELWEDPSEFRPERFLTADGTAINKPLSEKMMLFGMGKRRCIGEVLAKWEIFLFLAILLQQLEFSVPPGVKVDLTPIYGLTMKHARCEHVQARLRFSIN

Cytochrome P450 2C19 = Cytochrome P450 2C19 (Homo sapiens, UniProt P33261); assay: Inhibition of CYP2C19; type: ADME
Sequence of Cytochrome P450 2C19 (P33261 whole entry): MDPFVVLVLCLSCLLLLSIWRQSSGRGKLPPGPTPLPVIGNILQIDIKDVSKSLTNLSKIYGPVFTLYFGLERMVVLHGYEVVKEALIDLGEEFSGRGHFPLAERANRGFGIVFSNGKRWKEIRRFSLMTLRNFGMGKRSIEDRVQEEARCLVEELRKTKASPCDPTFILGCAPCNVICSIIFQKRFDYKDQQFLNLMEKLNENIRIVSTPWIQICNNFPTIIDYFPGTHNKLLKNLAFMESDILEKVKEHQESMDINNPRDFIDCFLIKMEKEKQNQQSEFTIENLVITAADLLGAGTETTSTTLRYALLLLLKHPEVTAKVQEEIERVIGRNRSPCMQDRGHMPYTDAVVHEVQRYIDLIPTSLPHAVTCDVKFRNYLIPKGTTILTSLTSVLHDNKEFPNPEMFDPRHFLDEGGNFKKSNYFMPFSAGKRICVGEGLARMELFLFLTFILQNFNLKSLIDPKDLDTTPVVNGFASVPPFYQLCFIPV

[4] = Metabolic stability in human microsomes assessed as compound remaining after 15 mins; type: ADME, Microsome; details: read-out: Stability
[5] = Metabolic stability in mouse liver microsomes assessed as compound remaining after 15 mins
Cytochrome P450 2D6 = Cytochrome P450 2D6 (Homo sapiens, UniProt P10635); assay: Inhibition of CYP2D6; type: ADME
Sequence of Cytochrome P450 2D6 (P10635 whole entry): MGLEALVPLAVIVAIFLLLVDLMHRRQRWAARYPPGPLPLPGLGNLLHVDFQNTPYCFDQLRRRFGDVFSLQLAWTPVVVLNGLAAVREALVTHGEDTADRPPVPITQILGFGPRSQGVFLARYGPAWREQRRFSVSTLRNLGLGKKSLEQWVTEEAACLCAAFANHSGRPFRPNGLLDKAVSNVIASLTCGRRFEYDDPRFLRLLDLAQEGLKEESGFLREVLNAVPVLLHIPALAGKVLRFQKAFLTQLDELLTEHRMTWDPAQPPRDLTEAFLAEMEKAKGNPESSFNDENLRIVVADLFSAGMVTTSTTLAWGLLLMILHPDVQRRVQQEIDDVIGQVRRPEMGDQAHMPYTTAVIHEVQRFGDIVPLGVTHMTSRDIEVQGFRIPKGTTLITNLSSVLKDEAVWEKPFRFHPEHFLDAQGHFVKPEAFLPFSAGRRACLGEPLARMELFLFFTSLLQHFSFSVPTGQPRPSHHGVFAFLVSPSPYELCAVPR

[6] = Cmax in BALB/c mouse plasma at 10 mg/kg, po upto 24 hrs; type: ADME, organism-based; design: dose 10 mg/kg, route oral
Cytochrome P450 3A4 = Cytochrome P450 3A4 (Homo sapiens, UniProt P08684); assay: Inhibition of CYP3A4; type: ADME
Sequence of Cytochrome P450 3A4 (P08684 whole entry): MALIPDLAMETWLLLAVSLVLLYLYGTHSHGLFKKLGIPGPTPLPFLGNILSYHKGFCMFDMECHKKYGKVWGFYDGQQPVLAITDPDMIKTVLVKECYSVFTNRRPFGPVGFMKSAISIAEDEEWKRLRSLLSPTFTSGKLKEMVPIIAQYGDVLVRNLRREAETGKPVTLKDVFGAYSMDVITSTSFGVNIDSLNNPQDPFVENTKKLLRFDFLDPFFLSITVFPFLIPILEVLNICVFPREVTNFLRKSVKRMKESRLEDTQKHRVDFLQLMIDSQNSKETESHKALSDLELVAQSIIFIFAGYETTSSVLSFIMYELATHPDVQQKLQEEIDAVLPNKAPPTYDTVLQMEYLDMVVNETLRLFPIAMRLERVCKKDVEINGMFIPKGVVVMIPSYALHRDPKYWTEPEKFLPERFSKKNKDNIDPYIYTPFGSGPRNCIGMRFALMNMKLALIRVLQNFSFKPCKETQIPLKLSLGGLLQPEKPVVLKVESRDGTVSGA

[7] = molecular target: T2, Insulin-like growth factor 1 receptor (Homo sapiens, UniProt P08069); assay: Inhibition of IGF-induced autophosphosphorylation of GST-tagged human IGF1R expressed in SF21 cells by time resolved-fluorescent assay
T2 sequence (P08069 31-736 limits assumed): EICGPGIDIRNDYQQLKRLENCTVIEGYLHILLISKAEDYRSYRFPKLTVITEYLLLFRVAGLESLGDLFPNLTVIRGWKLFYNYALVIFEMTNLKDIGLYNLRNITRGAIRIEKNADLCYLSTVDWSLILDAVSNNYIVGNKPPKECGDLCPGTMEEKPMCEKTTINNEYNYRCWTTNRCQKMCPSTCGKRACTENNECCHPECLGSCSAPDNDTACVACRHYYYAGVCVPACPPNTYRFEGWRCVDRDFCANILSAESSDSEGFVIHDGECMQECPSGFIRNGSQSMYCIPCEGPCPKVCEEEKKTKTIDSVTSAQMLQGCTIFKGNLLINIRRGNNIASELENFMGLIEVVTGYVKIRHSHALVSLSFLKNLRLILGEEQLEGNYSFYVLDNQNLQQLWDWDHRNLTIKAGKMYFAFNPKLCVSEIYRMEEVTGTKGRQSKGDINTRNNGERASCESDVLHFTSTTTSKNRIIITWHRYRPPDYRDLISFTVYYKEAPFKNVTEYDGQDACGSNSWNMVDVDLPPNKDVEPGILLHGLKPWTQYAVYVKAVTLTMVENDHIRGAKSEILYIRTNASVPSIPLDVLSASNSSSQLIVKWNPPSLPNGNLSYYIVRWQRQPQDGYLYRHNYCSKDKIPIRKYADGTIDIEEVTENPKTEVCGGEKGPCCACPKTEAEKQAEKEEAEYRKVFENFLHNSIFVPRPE
T2 sequence (P08069 741-1367 limits assumed): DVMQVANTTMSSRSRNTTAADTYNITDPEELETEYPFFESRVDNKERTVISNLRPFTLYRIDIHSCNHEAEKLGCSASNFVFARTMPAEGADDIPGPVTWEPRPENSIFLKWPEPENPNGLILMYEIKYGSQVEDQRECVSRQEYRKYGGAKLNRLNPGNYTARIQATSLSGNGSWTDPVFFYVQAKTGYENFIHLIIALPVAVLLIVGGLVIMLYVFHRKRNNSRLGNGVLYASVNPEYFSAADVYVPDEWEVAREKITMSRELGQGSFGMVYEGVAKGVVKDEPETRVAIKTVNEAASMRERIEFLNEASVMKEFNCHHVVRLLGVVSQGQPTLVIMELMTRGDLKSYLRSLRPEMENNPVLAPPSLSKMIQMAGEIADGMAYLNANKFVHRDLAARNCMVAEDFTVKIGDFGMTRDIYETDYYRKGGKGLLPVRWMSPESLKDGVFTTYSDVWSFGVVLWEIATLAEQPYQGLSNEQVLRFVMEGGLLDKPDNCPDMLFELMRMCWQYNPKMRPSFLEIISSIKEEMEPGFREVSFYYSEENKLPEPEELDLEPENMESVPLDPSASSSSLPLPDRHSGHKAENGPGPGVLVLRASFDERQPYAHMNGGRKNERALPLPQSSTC

[8] = molecular target: T2, Insulin-like growth factor 1 receptor; assay: Inhibition of IGF-induced autophosphosphorylation of GST-tagged human IGF1R expressed in baculovirus-SF21 cell system preincubated for 10 mins by time resolved-fluorescent assay
[9] = molecular target: T2, Insulin-like growth factor 1 receptor; assay: Inhibition of IGF-induced autophosphosphorylation of GST-tagged human IGF1R expressed in baculovirus-SF21 cell system preincubated for 5 mins by time resolved-fluorescent assay
[10] = molecular target: T2, Insulin-like growth factor 1 receptor; assay: Inhibition of IGF-induced autophosphosphorylation of GST-tagged human IGF1R expressed in baculovirus-SF21 cell system preincubated for 60 mins by time resolved-fluorescent assay
[11] = molecular target: T2, Insulin-like growth factor 1 receptor; assay: Inhibition of autophosphosphorylation of human IGF1R expressed in IGF1-stimulated MCF7 cells by ELISA; type: cell-based
[12] = molecular target: T2, Insulin-like growth factor 1 receptor; assay: Inhibition of autophosphosphorylation of human IGF1R expressed in IGF1-stimulated MCF7 cells preincubated for 60 mins by ELISA; type: cell-based
[13] = molecular target: T2, Insulin-like growth factor 1 receptor; assay: Inhibition of IGF-induced autophosphosphorylation of GST-tagged human IGF1R expressed in baculovirus-SF21 cell system preincubated for 30 mins by time resolved-fluorescent assay
[14] = molecular target: T2, Insulin-like growth factor 1 receptor; assay: Inhibition of IGF-induced autophosphosphorylation of GST-tagged human IGF1R expressed in SF21 cells after 10 mins by time resolved-fluorescent assay

Structure (SMILES): C[C@H]1C(=O)N(c2ccc(S(=O)(=O)C(F)(F)F)cc2)C(=O)N1Cc1ccnc2ccccc12
bioavailability [1]: > 100%
AUC(0-inf) [2]: 13200 ng·h/mL
IC50 (Insulin receptor): 300 nM
IC50 (Cytochrome P450 2C9): 700 nM
IC50 (MEF): 300 nM
solubility [3]: 9.9 µg/mL (≈ 21.4 µM)
IC50 (Cytochrome P450 1A2): > 15000 nM
IC50 (Cytochrome P450 2C19): > 15000 nM
remaining at 0.25 h [4]: 82%
remaining at 0.25 h [5]: 83%
IC50 (Cytochrome P450 2D6): > 15000 nM
Cmax [6]: 1490 ng/mL
IC50 (Cytochrome P450 3A4): > 15000 nM

Structure (SMILES): COc1cc2c(-c3cc4cccnc4[nH]3)cn(C)c2cc1OC
IC50 (MEF): 1600 nM
IC50 [7]: 55 nM
IC50 [8]: 34 nM
IC50 [9]: 34 nM
IC50 [10]: 35 nM
IC50 [11]: 145 nM
IC50 [12]: 180 nM
IC50 [13]: 33 nM

Structure (SMILES): O=C1CN(Cc2ccnc3ccccc23)C(=O)N1c1ccc(S(=O)(=O)C(F)(F)F)cc1
IC50 [7]: 5400 nM

Structure (SMILES): CC1(C)C(=O)N(c2ccc(SC(F)(F)F)cc2)C(=O)N1Cc1ccnc(N2CCOCC2)c1
IC50 [7]: > 10000 nM

Structure (SMILES): CN1CCN(c2cc(CN3C(=O)N(c4ccc(SC(F)(F)F)cc4)C(=O)C3(C)C)ccn2)CC1
IC50 [7]: > 10000 nM

Structure (SMILES): CC1(C)C(=O)N(c2ccc(SC(F)(F)F)cc2)C(=O)N1Cc1ccnc(N2CCNCC2)c1
IC50 [7]: > 10000 nM

Structure (SMILES): CC1(C)C(=O)N(c2ccc(SC(F)(F)F)cc2)C(=O)N1Cc1ccnc(C(=O)O)c1
IC50 [7]: > 10000 nM

Structure (SMILES): CC1(C)C(=O)N(c2ccc(SC(F)(F)F)cc2)C(=O)N1Cc1ccnc(NS(C)(=O)=O)c1
IC50 [7]: 4710 nM

Structure (SMILES): CN(C)c1cc(CN2C(=O)N(c3ccc(SC(F)(F)F)cc3)C(=O)C2(C)C)ccn1
IC50 [7]: 4500 nM

Structure (SMILES): CC1(C)C(=O)N(c2ccc(SC(F)(F)F)cc2)C(=O)N1Cc1ccnc(C(N)=O)c1
IC50 [7]: 2950 nM

Structure (SMILES): COc1ccc(CNc2cc(CN3C(=O)N(c4ccc(SC(F)(F)F)cc4)C(=O)C3(C)C)ccn2)cc1
IC50 [7]: 1090 nM

Structure (SMILES): CC1(C)C(=O)N(c2ccc(SC(F)(F)F)cc2)C(=O)N1Cc1ccnc(NCc2ccccc2)c1
IC50 [7]: 1050 nM

Structure (SMILES): CC(C)(C)OC(=O)Nc1cc(CN2C(=O)N(c3ccc(SC(F)(F)F)cc3)C(=O)C2(C)C)ccn1
IC50 [7]: 784 nM

Structure (SMILES): CNC(=O)c1cc(CN2C(=O)N(c3ccc(SC(F)(F)F)cc3)C(=O)C2(C)C)ccn1
IC50 [7]: 703 nM

Structure (SMILES): CCc1cc(CN2C(=O)N(c3ccc(SC(F)(F)F)cc3)C(=O)C2(C)C)ccn1
IC50 [7]: 574 nM

Structure (SMILES): CC(C)Nc1cc(CN2C(=O)N(c3ccc(SC(F)(F)F)cc3)C(=O)C2(C)C)ccn1
IC50 [7]: 453 nM

Structure (SMILES): CNc1cc(CN2C(=O)N(c3ccc(SC(F)(F)F)cc3)C(=O)C2(C)C)ccn1
IC50 (MEF): 312 nM

Structure (SMILES): CCNc1cc(CN2C(=O)N(c3ccc(SC(F)(F)F)cc3)C(=O)C2(C)C)ccn1
IC50 (MEF): 104 nM
IC50 [7]: 154 nM
IC50 [14]: 154 nM
IC50 [11]: 47 nM

Structure (SMILES): CC(=O)Nc1cc(CN2C(=O)N(c3ccc(SC(F)(F)F)cc3)C(=O)C2(C)C)ccn1
IC50 (MEF): 8 nM
IC50 [7]: 98 nM
IC50 [8]: 87 nM
IC50 [9]: 175 nM
IC50 [14]: 98 nM
IC50 [10]: 7 nM
IC50 [11]: 7 nM
IC50 [12]: 7 nM
IC50 [13]: 28 nM

Structure (SMILES): C[C@H]1C(=O)N(c2ccc(S(=O)(=O)C(F)(F)F)cc2)C(=O)N1Cc1ccncc1
IC50 [7]: 1600 nM

Structure (SMILES): C[C@H]1C(=O)N(c2ccc(S(=O)(=O)C(F)(F)F)cc2)C(=O)N1Cc1cccnc1
IC50 [7]: 79700 nM

Structure (SMILES): C[C@H]1C(=O)N(c2ccc(S(=O)(=O)C(F)(F)F)cc2)C(=O)N1Cc1ccccn1
IC50 [7]: > 100000 nM

Structure (SMILES): C[C@H]1C(=O)N(c2ccc(S(=O)(=O)C(F)(F)F)cc2)C(=O)N1Cc1cc[n+]([O-])cc1
IC50 [7]: > 100000 nM

Continued, in another order:

IC50 [7]: 2520 nM
Structure (SMILES): C[C@H]1C(=O)N(c2ccc([S+]([O-])C(F)(F)F)cc2)C(=O)N1Cc1ccnc2ccccc12 (stereo not given in full)

IC50 [7]: > 100000 nM
Structure (SMILES): C[C@H]1C(=O)N(c2ccc(S(C)(=O)=O)cc2)C(=O)N1Cc1ccnc2ccccc12

IC50 [7]: 460 nM
Structure (SMILES): CC1(C)C(=O)N(c2ccc(S(=O)(=O)C(F)(F)F)cc2)C(=O)N1Cc1ccnc2ccccc12

IC50 [7]: 264 nM
IC50 [14]: 264 nM
IC50 [11]: 117 nM
Structure (SMILES): CC1(C)C(=O)N(c2ccc(SC(F)(F)F)cc2)C(=O)N1Cc1ccncc1
IC50 (MEF): 282 nM

IC50 [7]: > 10000 nM
Structure (SMILES): CC1(C)C(=O)N(c2ccc(SC(F)(F)F)cc2)C(=O)N1Cc1ccnc(N2CCCCC2)c1

IC50 [7]: > 10000 nM
Structure (SMILES): CC1(C)C(=O)N(c2ccc(SC(F)(F)F)cc2)C(=O)N1Cc1ccnc(C#N)c1

IC50 [7]: 1850 nM
Structure (SMILES): CCOc1cc(CN2C(=O)N(c3ccc(SC(F)(F)F)cc3)C(=O)C2(C)C)ccn1

IC50 [7]: 1240 nM
Structure (SMILES): CC1(C)C(=O)N(c2ccc(SC(F)(F)F)cc2)C(=O)N1Cc1ccnc(NC2CCCCC2)c1

IC50 [7]: 1060 nM
Structure (SMILES): CC1(C)C(=O)N(c2ccc(SC(F)(F)F)cc2)C(=O)N1Cc1ccnc(Nc2ccccc2)c1

IC50 [7]: 995 nM
Structure (SMILES): CC1(C)C(=O)N(c2ccc(SC(F)(F)F)cc2)C(=O)N1Cc1ccnc(Cl)c1

IC50 [7]: 92 nM
IC50 [14]: 92 nM
IC50 [11]: 34 nM
Structure (SMILES): CC1(C)C(=O)N(c2ccc(SC(F)(F)F)cc2)C(=O)N1Cc1ccnc(N)c1
IC50 (MEF): 97 nM

IC50 [7]: > 100000 nM
Structure (SMILES): C[C@H]1C(=O)N(c2ccc(S(=O)(=O)C(F)(F)F)cc2)C(=O)N1Cc1cnc2ccccc2c1

IC50 [7]: > 100000 nM
Structure (SMILES): C[C@H]1C(=O)N(c2ccc(S(=O)(=O)C(F)(F)F)cc2)C(=O)N1Cc1c[nH]cn1

IC50 [7]: > 100000 nM
Structure (SMILES): C[C@H]1C(=O)N(c2ccc(S(=O)(=O)C(F)(F)F)cc2)C(=O)N1CC1CCNCC1

IC50 [7]: > 100000 nM
Structure (SMILES): C[C@H]1C(=O)N(c2ccc(S(=O)(=O)C(F)(F)F)cc2)C(=O)N1Cc1ccccc1

IC50 [7]: > 100000 nM
Structure (SMILES): C[C@H]1C(=O)N(c2ccc(S(=O)(=O)C(F)(F)F)cc2)C(=O)N1Cc1cc[n+]([O-])c2ccccc12
